The record followed here is ChEMBL document CHEMBL1201862, “PubChem BioAssay data set” (2004).

Some test systems named below: DMS-273; SF-539; SF-295; OVCAR-4; UACC-257; SW-620; NCI-H23; IGROV-1; K562; HOP-62; HL-60; CCRF-CEM; HCT-15; 786-0; U-251; M14; KM12; RXF 393; LOX IMVI.
Assay in all cases: DTP human tumour cell line panel, 48 h

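Following 48 hours of exposure in 96-well plates, responses at five concentrations were used to interpolate endpoints linearly. At the GI50, growth is halved.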 The source made the active and inactive calls. Cut-off read from the data, not from the text of the source: active = GI50 up to about 1.1 µM and inactive = higher. Bounds are passed on as bounds.

As usually defined, the GI50 is the concentration that inhibits growth by half.

Consider `O=C(/C=C/c1ccc(Cl)c(Cl)c1)c1ccc(F)cc1`, for which the GI50 with DMS-273 was 12.5 µM (inactive); in the assay with SF-539 it was 20.8 µM (inactive); with SF-295, 20.2 µM (inactive); in the assay on OVCAR-4, 19.2 µM (inactive); in the assay on UACC-257, 23.8 µM (inactive); in the assay on SW-620, 2.05 µM (inactive). Besides, the GI50 with NCI-H23 was 29.8 µM (inactive); in the assay on IGROV-1, 20.3 µM (inactive); with K562, 4.33 µM (inactive); with HOP-62, > 100 µM (inactive); with HL-60 it was 11.9 µM (inactive); with CCRF-CEM, 4.42 µM (inactive). Further, the GI50 in the assay with HCT-15 was 10.2 µM; in the assay with 786-0 it was 15.5 µM (inactive); in the assay with U-251 it was 13 µM (inactive); with M14, 16.9 µM (inactive); in the assay on KM12 it was 8.65 µM (inactive).
As for `COC(=O)/C(=C\c1ccc(N(CCC#N)CCC#N)cc1)NC(=O)c1cc([N+](=O)[O-])ccc1Cl`, the GI50 with DMS-273, in the assay with SF-539, in the assay on RXF 393, with SF-295, in the assay on OVCAR-4 and in the assay with UACC-257 was > 100 µM (inactive) throughout. Further, the GI50 in the assay with SW-620, in the assay on NCI-H23, in the assay on IGROV-1, in the assay on K562, with HOP-62 and in the assay on CCRF-CEM was > 100 µM (inactive) in each case. For the same compound, the 50% growth inhibitory concentration (GI50) in the assay on HCT-15 is above 100 µM; with 786-0, > 100 µM (inactive); in the assay on U-251, > 100 µM (inactive); in the assay with M14, > 100 µM (inactive); in the assay with KM12, > 100 µM (inactive); in the assay with LOX IMVI, > 100 µM (inactive).
As to `Cc1cc2c(cc1C)[n+]([O-])c(C(=O)CC(=O)C(=O)Nc1c(C(C)C)cccc1C(C)C)c(C)[n+]2[O-]`, the GI50 with DMS-273, with SF-539, in the assay on RXF 393, in the assay on SF-295, in the assay on OVCAR-4 and with UACC-257 was > 100 µM (inactive) throughout. Also, the GI50 in the assay on SW-620, in the assay on NCI-H23, in the assay with IGROV-1, in the assay with K562, with HOP-62 and with CCRF-CEM was > 100 µM (inactive) in each case. Besides, the GI50 in the assay with HCT-15 was above 100 µM; in the assay with 786-0, > 100 µM (inactive); with U-251, > 100 µM (inactive); in the assay on M14, > 100 µM (inactive); in the assay with KM12, > 100 µM (inactive); in the assay on LOX IMVI, > 100 µM (inactive).
On to `C[C@@H](NC1CCC[C@H]1O)c1ccccc1` (some centres not stated), for which the GI50 with DMS-273, with RXF 393, with SF-295, with OVCAR-4, with UACC-257 and in the assay on SW-620 was > 100 µM (inactive) in each case. Also, the GI50 in the assay with IGROV-1 was > 100 µM (inactive); in the assay on K562, > 100 µM (inactive); in the assay on HOP-62 it was > 100 µM (inactive); in the assay on HL-60 it was > 100 µM (inactive); in the assay with CCRF-CEM, > 100 µM (inactive); in the assay on HCT-15 it was above 100 µM. Further, the GI50 with 786-0, in the assay with U-251, with M14, with KM12 and in the assay on LOX IMVI was > 100 µM (inactive) in each case.
Turning to `CCN(CC)CCCC(C)Nc1ccnc2ccc3nn(C)nc3c12` (configuration not stated), the GI50 with DMS-273 was 26.4 µM (inactive); with SF-539, 37.8 µM (inactive); in the assay on SF-295 it was 44.7 µM (inactive); in the assay with UACC-257, 36 µM (inactive); with SW-620, 22.3 µM (inactive); in the assay with NCI-H23, > 100 µM (inactive). The GI50 in the assay with IGROV-1 was > 100 µM (inactive); with K562, 23.4 µM (inactive); in the assay on HOP-62 it was 76.6 µM (inactive); with HL-60, 30.1 µM (inactive); in the assay on CCRF-CEM it was 25.1 µM (inactive); in the assay on 786-0, 37.3 µM (inactive). Also, the GI50 was 65.6 µM (inactive) in the assay with U-251, 23.7 µM (inactive) in the assay with M14, 42.3 µM (inactive) in the assay on KM12 and 17.9 µM (inactive) in the assay with LOX IMVI.
`CN(C)CCCNC(=O)c1cccc2nc3ccccc3nc12`: the GI50 with DMS-273 was 9.91 µM (inactive); in the assay on SF-539 it was 16.3 µM (inactive); in the assay on RXF 393, 15.6 µM (inactive); in the assay with SF-295 it was 19.5 µM (inactive); in the assay on OVCAR-4, 14.1 µM (inactive); in the assay with UACC-257 it was 13.2 µM (inactive). Further, the GI50 in the assay on SW-620 is 8.13 µM (inactive); in the assay with NCI-H23 it was 14.8 µM (inactive); in the assay with IGROV-1, 34.2 µM (inactive); in the assay on K562, 7.46 µM (inactive); in the assay with HOP-62, 19.9 µM (inactive); in the assay on HCT-15, 15.2 µM. Besides, the GI50 with 786-0 is 51.1 µM (inactive); in the assay with U-251 it was 19.1 µM (inactive); in the assay with M14, 22 µM (inactive); in the assay with KM12, 13.5 µM (inactive); in the assay on LOX IMVI, 6.52 µM (inactive).
Consider `OC12c3ccccc3C1CCCCC2N1CCCC1` (configuration not stated), for which the GI50 in the assay on DMS-273, in the assay with RXF 393, in the assay with SF-295, in the assay on OVCAR-4, in the assay on UACC-257 and in the assay with SW-620 was > 100 µM (inactive) each time. Besides, the GI50 with NCI-H23 was > 100 µM (inactive); in the assay with K562, > 10 µM (inactive); with HOP-62 it was > 100 µM (inactive); in the assay on HL-60, > 100 µM (inactive); in the assay with CCRF-CEM it was > 100 µM (inactive); with HCT-15, above 100 µM. Also, the GI50 in the assay on 786-0, in the assay on U-251, in the assay with M14, with KM12 and in the assay with LOX IMVI was > 100 µM (inactive) each time.
Consider `Cc1nc2ccccc2c(=O)n1/N=C(\N=N\c1ccc(Cl)cc1)c1ccc(N(C)C)cc1`, for which the GI50 in the assay on DMS-273 is 60.1 µM (inactive); in the assay with SF-539, > 100 µM (inactive); in the assay on RXF 393 it was 80.4 µM (inactive); with SF-295, > 100 µM (inactive); with SW-620, > 100 µM (inactive); with NCI-H23, 72.4 µM (inactive). Besides, the GI50 in the assay on IGROV-1 is > 100 µM (inactive); in the assay with K562, 36.6 µM (inactive); in the assay on HOP-62 it was 66.4 µM (inactive); in the assay with CCRF-CEM it was 81.5 µM (inactive); in the assay on HCT-15 it was above 100 µM; in the assay on 786-0 it was > 100 µM (inactive). Moreover, the GI50 with U-251 is > 10 µM (inactive); in the assay with LOX IMVI, > 100 µM (inactive).
Take `Cc1cc(N(CCC#N)CCC#N)ccc1/C=C(/NC(=O)/C=C/c1ccccc1)C(N)=O`: the GI50 was > 100 µM (inactive) with DMS-273; > 100 µM (inactive) in the assay on SF-539; 4.19 µM (inactive) in the assay on RXF 393; > 100 µM (inactive) in the assay with SF-295; > 100 µM (inactive) in the assay with UACC-257; > 100 µM (inactive) with SW-620. Moreover, the GI50 with NCI-H23 was > 100 µM (inactive); in the assay on IGROV-1 it was > 100 µM (inactive); in the assay with K562, 62.1 µM (inactive); with HOP-62, > 100 µM (inactive); in the assay on HL-60, > 100 µM (inactive); with CCRF-CEM it was > 100 µM (inactive). Further, the GI50 was above 100 µM with HCT-15; > 100 µM (inactive) in the assay with 786-0; > 100 µM (inactive) in the assay on U-251; > 100 µM (inactive) in the assay with M14; > 100 µM (inactive) in the assay with KM12; 97.5 µM (inactive) in the assay with LOX IMVI.
